Assay results taken from patent US20220177462A1, “SUBSTITUTED HETEROCYCLIC AMIDE COMPOUND AND PREPARATION METHOD THEREFOR AND PHARMACEUTICAL USE THEREOF” (GENFLEET THERAPEUTICS (SHANGHAI) INC., priority 2019, published 2022).

test system: U937 cells; test: Inhibitory activity against programmed necroptosis of U937 cells induced by TNF-α; format: cell-based, human; details: Homo sapiens, U-937, 48 h, 100 ng/ml human TNF-α and 25 μM Q-VD-Oph, 48 hours, CellTiter-Glo survival rate; read-out: U937 IC50
Experimental: The U937 cell strain which was used in the following Testing Examples was derived from ATCC, No.: CRL-1593.2, batch No.: 63479999, culture medium: RPMI-1640+10% FBS.
The compound was dissolved in DMSO to prepare a 10 mM stock solution. The stock solution was diluted in 3.16 folds with DMSO to a series of gradient concentrations. Then, the resultant solution was diluted in 250 folds with a culture medium to prepare a working solution. The U937 cells were inoculated in a 384-well plate at 5000/well. The compound at respective concentration was added to each of the cells, and was mixed with the cells homogeneously. 100 ng/ml human TNF-α and 25 μM Q-VD-Oph were added simultaneously to induce programmed necroptosis of the cells. The final concentration of DMSO was 2%. The cells were placed in the incubator at 37° C. and 5% CO2 for further culture of 48 hours. Celltiter-Glo reagent was used for detection. After adequate pyrolysis reaction, the chemiluminescence readout value was recorded by a microplate reader. The survival rate was calculated from the detection results using the equation as follows: SR (%)=(RLU compound−RLU blank)/(RLU high control−RLU blank)×100%. The survival rate was plotted against the final concentration of respective compound using a 4-parameter fitting to calculate the inhibitory IC50 of the compound against programmed necroptosis of cells induced by TNF-a.

`COc1ncc(-c2ccc3nc(N)sc3c2)cc1C(=O)NC(C)c1ccccc1OC(F)(F)F` (single isomer, unassigned) [Compound Z1, 5-(2-aminobenzothiazol-6-yl)-2-methoxy-N-(1-(2-(trifluoromethoxy)phenyl)ethyl)nicotinamide] and `CC(NC(=O)c1cc(-c2ccc3nc(N)sc3c2)cnc1N)c1ccccc1OC(F)(F)F` (stereo not drawn) [Compound Z46, 2-amino-5-(2-aminobenzo[d]thiazol-6-yl)-N-(1-(2-(trifluoromethoxy)phenyl)ethyl)nicotinamide] are within 1.5-fold of each other in IC50: 52 nM for the first, 76 nM for the second.

First: CC(NC(=O)c1cnc(Cl)c(-c2ccc3nc(N)sc3c2)c1)c1ccccc1OC(F)(F)F (stereo not drawn) [Compound Z8, 5-(2-aminobenzo[d]thiazol-6-yl)-6-chloro-N-(1-(2-(trifluoromethoxy)phenyl)ethyl)nicotinamide]
Second: COc1nc(C)c(-c2ccc3nc(N)sc3c2)cc1C(=O)NC(C)c1ccccc1OC(F)(F)F (stereo not drawn) [Compound Z37, 5-(2-aminobenzo[d]thiazol-6-yl)-2-methoxy-6-methyl-N-(1-(2-(trifluoromethoxy)phenyl)ethyl)nicotinamide]
The IC50 of the first is 2-fold higher: 88 nM for the first, 45 nM for the second. The second is the more potent here.

Going from `Cc1ncc(-c2ccc3nc(N)sc3c2)cc1C(=O)NCc1c(F)cccc1OCC1CCCC1` [Compound Z12, 5-(2-aminobenzo[d]thiazol-6-yl)-N-(2-(cyclopentylmethoxy)-6-fluorobenzyl)-2-methylnicotinamide] to `COc1ncc(-c2ccc3nc(N)sc3c2)cc1C(=O)NCc1c(F)cccc1OC1CCCC1` [Compound Z18, 5-(2-aminobenzo[d]thiazol-6-yl)-N-(2-(cyclopentyloxy)-6-fluorobenzyl)-2-methoxynicotinamide], the IC50 falls from 10 nM to 4 nM (2.5-fold).

Compared with `COc1ncc(C(=O)NCc2cc(F)ccc2OC2CCCC2)cc1-c1ccc2nc(N)sc2c1` [Compound Z13, 5-(2-aminobenzo[d]thiazol-6-yl)-N-(2-(cyclopentyloxy)-5-fluorobenzyl)-6-methoxynicotinamide], `COc1ncc(-c2ccc3nc(N)sc3c2)cc1C(=O)NCc1cc(F)ccc1OC1CCCC1` [Compound Z19, 5-(2-aminobenzo[d]thiazol-6-yl)-N-(2-(cyclopentyloxy)-5-fluorobenzyl)-2-methoxynicotinamide] is 2.4-fold lower in IC50: 17 nM for the first, 7 nM for the second.

Going from `COc1ncc(-c2ccc3nc(N)sc3c2)cc1C(=O)NCc1cc(OC(F)(F)F)ccc1F` [Compound Z14, 5-(2-aminobenzo[d]thiazol-6-yl)-N-(2-fluoro-5-(trifluoromethoxy)benzyl)-2-methoxynicotinamide] to `COc1ncc(-c2ccc3nc(N)sc3c2)cc1C(=O)NC(C)c1c(F)cccc1OC(F)(F)F` (stereo not drawn) [Compound Z48, 5-(2-aminobenzo[d]thiazol-6-yl)-N-(1-(2-fluoro-6-(trifluoromethoxy)phenyl)ethyl)-2-methoxynicotinamide], the IC50 rises from 6 nM to 88 nM (15-fold).

Compared with `COc1ncc(-c2ccc3nc(N)sc3c2)cc1C(=O)NCCCc1ccccc1` [Compound Z16, 5-(2-aminobenzo[d]thiazol-6-yl)-2-methoxy-N-(3-phenylpropyl)nicotinamide], `COc1ncc(-c2ccc3nc(N)sc3c2)cc1C(=O)NCc1ccccc1OC(C)C` [Compound Z50, 5-(2-aminobenzo[d]thiazol-6-yl)-N-(2-isopropoxybenzyl)-2-methoxynicotinamide] is 1.9-fold higher in IC50: 26 nM for the first, 49 nM for the second. The first is the more potent here.

Going from `COc1ncc(-c2ccc3nc(N)sc3c2)cc1C(=O)N1CCCC(Cc2ccc(F)cc2)C1` (stereo not drawn) [Compound Z17, (5-(2-aminobenzo[d]thiazol-6-yl)-2-methoxypyridin-3-yl)(3-(4-fluorobenzyl)piperidin-1-yl)methanone] to `COc1ncc(-c2ccc3nc(N)sc3c2)cc1C(=O)Nc1cnn(C(C)c2ccc(F)cc2)c1` (stereo not drawn) [Compound Z63, 5-(2-aminobenzo[d]thiazol-6-yl)-N-(1-(1-(4-fluorophenyl)ethyl)-1H-pyrazol-4-yl)-2-methoxynicotinamide], the IC50 rises from 4 nM to 7 nM (1.8-fold).

Compared with `COc1ncc(-c2ccc3nc(N)sc3c2)cc1C(=O)NCc1ccccc1OCC1CC1` [Compound Z20, 5-(2-aminobenzo[d]thiazol-6-yl)-N-(2-(cyclopropylmethoxy)benzyl)-2-methoxynicotinamide], `COc1ncc(-c2ccc3nc(N)sc3c2)cc1C(=O)NCc1ccccc1OC1CCOC1` (stereo not drawn) [Compound Z53, 5-(2-aminobenzo[d]thiazol-6-yl)-2-methoxy-N-(2-((tetrahydrofuran-3-yl)oxy)benzyl)nicotinamide] is 2.3-fold higher in IC50: 18 nM for the first, 42 nM for the second. The first is the more potent here.

`Nc1nc2ccc(-c3cncc(C(=O)NCc4ccccc4OCC4CC4)c3)cc2s1` [Compound Z22, 5-(2-aminobenzo[d]thiazol-6-yl)-N-(2-(cyclopropylmethoxy)benzyl)nicotinamide] and `COc1nc(C)c(-c2ccc3nc(N)sc3c2)cc1C(=O)NCc1ccccc1OC1CCOC1` (stereo not drawn) [Compound Z40, 5-(2-aminobenzo[d]thiazol-6-yl)-2-methoxy-6-methyl-N-(2-((tetrahydrofuran-3-yl)oxy)benzyl)nicotinamide] are within 1.5-fold of each other in IC50: 62 nM for the first, 68 nM for the second.

`CC(NC(=O)c1cc(-c2ccn3nc(N)nc3c2)cc2[nH]ccc12)c1ccccc1OC(F)(F)F` (stereo not drawn) [Compound Z24, 6-(2-amino-[1,2,4]triazolo[1,5-a]pyridin-7-yl)-N-(1-(2-(trifluoromethoxy)phenyl)ethyl)-1H-indole-4-carboxamide] and `CC(NC(=O)c1cc(-c2ccn3nc(N)nc3c2)c2cc[nH]c2c1)c1ccccc1OC(F)(F)F` (stereo not drawn) [Compound Z25, 4-(2-amino-[1,2,4]triazolo[1,5-a]pyridin-7-yl)-N-(1-(2-(trifluoromethoxy)phenyl)ethyl)-1H-indole-6-carboxamide] are within 1.5-fold of each other in IC50: 151 nM for the first, 140 nM for the second.

`COc1nc(C)c(-c2ccc3nc(N)sc3c2)cc1C(=O)NCc1cc(F)cc(F)c1OCC1CC1` [Compound Z38, 5-(2-aminobenzo[d]thiazol-6-yl)-N-(2-(cyclopropylmethoxy)-3,5-difluorobenzyl)-2-methoxy-6-methylnicotinamide] and `COc1nc(C)c(-c2ccc3nc(N)sc3c2)cc1C(=O)NCc1cccnc1OC1CCCC1` [Compound Z41, 5-(2-aminobenzo[d]thiazol-6-yl)-N-((2-(cyclopentyloxy)pyridin-3-yl)methyl)-2-methoxy-6-methylnicotinamide] are the same in IC50: 14 nM for the first, 14 nM for the second.

First: COc1nc(C)c(-c2ccc3nc(N)sc3c2)cc1C(=O)NCc1ccccc1OC(C)C [Compound Z42, 5-(2-aminobenzo[d]thiazol-6-yl)-N-(2-isopropoxybenzyl)-2-methoxy-6-methylnicotinamide]
Second: COc1ncc(-c2ccc3nc(N)sc3c2)cc1C(=O)NCc1cccnc1OC1CCCC1 [Compound Z52, 5-(2-aminobenzo[d]thiazol-6-yl)-N-((2-(cyclopentyloxy)pyridin-3-yl)methyl)-2-methoxynicotinamide]
The IC50 of the first is 2.3-fold higher: 43 nM for the first, 19 nM for the second. The second is the more potent here.

Going from `Cc1ncc(-c2ccc3nc(N)sc3c2)cc1C(=O)NC(C)c1cc(OC(F)(F)F)ccc1F` (stereo not drawn) [Compound Z43, 5-(2-aminobenzo[d]thiazol-6-yl)-N-(1-(2-fluoro-5-(trifluoromethoxy)phenyl)ethyl)-2-methylnicotinamide] to `CC(c1ccc(F)cc1)n1cc(NC(=O)c2cc(-c3ccn4nc(N)nc4c3)c3cnn(C)c3c2)cn1` (stereo not drawn) [Compound Z60, 4-(2-amino-[1,2,4]triazolo[1,5-a]pyridin-7-yl)-N-(1-(1-(4-fluorophenyl)ethyl)-1H-pyrazol-4-yl)-1-methyl-1H-indazole-6-carboxamide], the IC50 rises from 3 nM to 213 nM (71-fold). The first is the more potent here.

Going from `Cn1ncc2c(-c3ccn4nc(N)nc4c3)cc(C(=O)NCc3cccnc3OC3CCCC3)cc21` [Compound Z57, 4-(2-amino-[1,2,4]triazolo[1,5-a]pyridin-7-yl)-N-((2-(cyclopentyloxy)pyridin-3-yl)methyl)-1-methyl-1H-indazole-6-carboxamide] to `Cn1ncc2c(-c3ccn4nc(N)nc4c3)cc(C(=O)NCc3cc(F)ccc3OC3CCOCC3)cc21` [Compound Z61, 4-(2-amino-[1,2,4]triazolo[1,5-a]pyridin-7-yl)-N-(5-fluoro-2-((tetrahydro-2H-pyran-4-yl)oxy)benzyl)-1-methyl-1H-indazole-6-carboxamide], the IC50 falls from 11 nM to 2 nM (5.5-fold).

`Cn1ncc2c(-c3ccn4nc(N)nc4c3)cc(C(=O)NCc3cc(F)ccc3OCC3CC3)cc21` [Compound Z59, 4-(2-amino-[1,2,4]triazolo[1,5-a]pyridin-7-yl)-N-(2-(cyclopropylmethoxy)-5-fluorobenzyl)-1-methyl-1H-indazole-6-carboxamide] and `Cn1ncc2c(-c3ccn4nc(N)nc4c3)cc(C(=O)NCc3cc(F)ccc3OC3CCOC3)cc21` (stereo not drawn) [Compound Z62, 4-(2-amino-[1,2,4]triazolo[1,5-a]pyridin-7-yl)-N-(5-fluoro-2-((tetrahydrofuran-3-yl)oxy)benzyl)-1-methyl-1H-indazole-6-carboxamide] are within 1.5-fold of each other in IC50: 24 nM for the first, 30 nM for the second.
